Laboratory results from patent US20230074545A1, “TREATMENT OF CANCER WITH CDK12/13 INHIBITORS” (Kinnate Biopharma Inc., priority 2019, published 2023).

Legend:
Test in all cases: Radiometric kinase panel
Assay type in all cases: biochemical
VEGFR1 = target: T1, VEGFR1 (Homo sapiens, UniProt P17948)
T1 construct: either as full-length or enzymatically active fragments; purchased ProQinase GmbH (Reaction Biology); host or cells: Sf9 insect cells or E. coli (not specified per kinase)
Protocol: (§1) The compounds 1-5 (see Table 1) were assayed for kinase activity at ProQinase (ProQinase GmbH, Reaction Biology; Freiburg, Germany) using their commercially available radiometric kinase assay services. Briefly, the compounds were provided as solids and were dissolved to 1×10^−03 M/100% DMSO stock solutions on the day of assay. All protein kinases were provided by ProQinase and were expressed in Sf9 insect cells or in E. coli as recombinant GST-fusion proteins or His-tagged proteins, either as full-length or enzymatically active fragments. All kinases were produced from human cDNAs and purified by either GSH-affinity chromatography or immobilized metal. The purity of the protein kinases was examined by SDS-PAGE/Coomassie staining, the identity was checked by mass spectroscopy. A radiometric protein kinase assay (^33PanQinase® Activity Assay) was used for measuring the kinase activity of the protein kinase. All kinase assays were performed in 96-well FlashPlates™ from PerkinElmer (Boston, Mass., USA) in a 50 microliter reaction volume. The reaction cocktail was pipetted in four steps in the following order: 1) 25 microliter of assay buffer (standard buffer/[gamma-^33P]-ATP); 2) 10 microliter of ATP solution (in H2O); 3) 5 microliter of test compound (in 10% DMSO); 4) 10 microliter of enzyme/substrate mixture.
(§2) Compound 4 was analyzed for selectivity against a panel of other kinases at ProQinase using their commercially available radiometric kinase assay services and the methods described in Example 1.

CLK2 = target: T2, CLK2 (Homo sapiens, UniProt P49760)
T2 construct: purchased ProQinase GmbH (Reaction Biology)
Protocol: as §1, §2

FES = target: T3, FES (Homo sapiens, UniProt P07332)
T3 construct: purchased ProQinase GmbH (Reaction Biology)
T3 sequence (P07332 whole entry): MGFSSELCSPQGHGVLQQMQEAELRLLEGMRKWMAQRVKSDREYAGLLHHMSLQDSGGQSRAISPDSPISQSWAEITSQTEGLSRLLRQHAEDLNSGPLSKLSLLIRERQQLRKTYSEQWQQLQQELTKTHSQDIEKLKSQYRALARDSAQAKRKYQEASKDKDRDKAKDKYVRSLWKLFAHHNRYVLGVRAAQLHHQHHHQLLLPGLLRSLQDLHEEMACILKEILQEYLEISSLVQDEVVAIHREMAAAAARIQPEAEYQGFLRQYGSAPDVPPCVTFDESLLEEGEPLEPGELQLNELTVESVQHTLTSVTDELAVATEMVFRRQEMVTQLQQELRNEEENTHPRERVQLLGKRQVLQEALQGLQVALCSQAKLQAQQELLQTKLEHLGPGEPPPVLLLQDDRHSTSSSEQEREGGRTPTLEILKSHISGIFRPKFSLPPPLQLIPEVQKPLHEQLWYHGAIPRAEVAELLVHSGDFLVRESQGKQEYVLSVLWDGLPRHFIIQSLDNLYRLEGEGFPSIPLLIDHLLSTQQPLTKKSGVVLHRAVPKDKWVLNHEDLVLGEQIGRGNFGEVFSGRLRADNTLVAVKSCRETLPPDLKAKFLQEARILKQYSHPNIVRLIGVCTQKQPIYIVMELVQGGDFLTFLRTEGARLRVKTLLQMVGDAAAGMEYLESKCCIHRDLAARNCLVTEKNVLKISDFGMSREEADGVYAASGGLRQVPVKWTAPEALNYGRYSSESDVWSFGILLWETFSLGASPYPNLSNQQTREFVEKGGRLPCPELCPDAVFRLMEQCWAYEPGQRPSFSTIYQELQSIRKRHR
Protocol: as §1, §2

CDK2/CycE1 = target: T4, CDK2/CycE1 (Homo sapiens, UniProt P24941)
T4 construct: either as full-length or enzymatically active fragments; purchased ProQinase GmbH (Reaction Biology); host or cells: Sf9 insect cells or E. coli (not specified per kinase)
Protocol: as §1, §2

CAMKK2 = target: T5, CAMKK2 (Homo sapiens, UniProt Q96RR4)
T5 construct: either as full-length or enzymatically active fragments; purchased ProQinase GmbH (Reaction Biology); host or cells: Sf9 insect cells or E. coli (not specified per kinase)
Protocol: as §1, §2

DYRK1B = target: T6, DYRK1B (Homo sapiens, UniProt Q9Y463)
T6 construct: either as full-length or enzymatically active fragments; purchased ProQinase GmbH (Reaction Biology)
Protocol: as §1, §2

PDGFRalpha = target: T7, PDGFRalpha (Homo sapiens, UniProt P16234)
T7 construct: either as full-length or enzymatically active fragments; purchased ProQinase GmbH (Reaction Biology)
Protocol: as §1, §2

EPHA6 = target: T8, EPHA6 (Homo sapiens, UniProt Q9UF33)
T8 construct: either as full-length or enzymatically active fragments; purchased ProQinase GmbH (Reaction Biology)
Protocol: as §1, §2

MEK2 = target: T9, MEK2 (Homo sapiens, UniProt P36507)
T9 construct: either as full-length or enzymatically active fragments; purchased ProQinase GmbH (Reaction Biology)
T9 sequence (P36507 whole entry, the tested form may be a part): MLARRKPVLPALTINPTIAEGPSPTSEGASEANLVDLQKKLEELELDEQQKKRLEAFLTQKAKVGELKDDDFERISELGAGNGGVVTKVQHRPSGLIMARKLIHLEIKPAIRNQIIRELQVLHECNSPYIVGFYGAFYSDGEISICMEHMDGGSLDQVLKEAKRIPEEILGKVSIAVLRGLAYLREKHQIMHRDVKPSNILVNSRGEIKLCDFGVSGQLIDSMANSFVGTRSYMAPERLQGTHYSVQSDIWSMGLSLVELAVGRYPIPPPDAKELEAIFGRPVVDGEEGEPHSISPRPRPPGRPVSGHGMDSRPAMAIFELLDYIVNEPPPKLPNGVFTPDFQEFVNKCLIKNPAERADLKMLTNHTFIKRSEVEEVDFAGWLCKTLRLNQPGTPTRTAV
Protocol: as §1, §2

PRK1 = target: T10, PRK1 (Homo sapiens, UniProt Q16512)
T10 construct: purchased ProQinase GmbH (Reaction Biology)
Protocol: as §1, §2

RIPK4 = target: T11, RIPK4 (Homo sapiens, UniProt P57078)
T11 construct: either as full-length or enzymatically active fragments; purchased ProQinase GmbH (Reaction Biology)
Protocol: as §1, §2

TXK = target: T12, TXK (Homo sapiens, UniProt P42681)
T12 construct: either as full-length or enzymatically active fragments; purchased ProQinase GmbH (Reaction Biology)
Protocol: as §1, §2

CDK1/CycE1 = target: T13, CDK1/CycE1 (Homo sapiens, UniProt P06493)
T13 construct: either as full-length or enzymatically active fragments; purchased ProQinase GmbH (Reaction Biology); host or cells: Sf9 insect cells or E. coli
Protocol: as §1, §2

ACVRL1 = target: T14, ACVRL1 (Homo sapiens, UniProt P37023)
T14 construct: either as full-length or enzymatically active fragments; purchased ProQinase GmbH (Reaction Biology)
Protocol: as §1, §2

TRKC = target: T15, TRKC (Homo sapiens, UniProt Q16288)
T15 construct: either as full-length or enzymatically active fragments; purchased ProQinase GmbH (Reaction Biology)
Protocol: as §1, §2

ACVR1B = target: T16, ACVR1B (Homo sapiens, UniProt P36896)
T16 construct: purchased ProQinase GmbH (Reaction Biology); host or cells: Sf9 insect cells or E. coli (not specified per kinase)
T16 sequence (P36896 24-505): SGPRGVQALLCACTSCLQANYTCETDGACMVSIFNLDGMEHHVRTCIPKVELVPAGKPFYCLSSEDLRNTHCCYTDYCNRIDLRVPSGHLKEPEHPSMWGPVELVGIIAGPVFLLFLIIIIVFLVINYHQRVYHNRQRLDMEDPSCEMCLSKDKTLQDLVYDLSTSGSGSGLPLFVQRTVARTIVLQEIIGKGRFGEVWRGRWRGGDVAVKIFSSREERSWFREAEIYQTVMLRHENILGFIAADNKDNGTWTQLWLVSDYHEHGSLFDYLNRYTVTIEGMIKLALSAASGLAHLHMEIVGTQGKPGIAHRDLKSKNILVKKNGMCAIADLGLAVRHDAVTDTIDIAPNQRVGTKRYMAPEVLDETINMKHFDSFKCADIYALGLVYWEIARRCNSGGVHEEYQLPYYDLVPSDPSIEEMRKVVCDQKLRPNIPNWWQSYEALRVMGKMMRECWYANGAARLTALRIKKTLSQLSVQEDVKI
Protocol: as §1, §2

MASTL = target: T17, MASTL (Homo sapiens, UniProt Q96GX5)
T17 construct: either as full-length or enzymatically active fragments; purchased ProQinase GmbH (Reaction Biology); host or cells: Sf9 insect cells or E. coli (not specified per kinase)
Protocol: as §1, §2

MST2 = target: T18, MST2 (Homo sapiens, UniProt Q13188)
T18 construct: purchased ProQinase GmbH (Reaction Biology)
Protocol: as §1, §2

DYRK1A = target: T19, DYRK1A (Homo sapiens, UniProt Q13627)
T19 construct: either as full-length or enzymatically active fragments; purchased ProQinase GmbH (Reaction Biology)
Protocol: as §1, §2

PKCbeta2 = target: T20, PKCbeta2 (Homo sapiens, UniProt P05771)
T20 construct: either as full-length or enzymatically active fragments; purchased ProQinase GmbH (Reaction Biology)
Protocol: as §1, §2

EPHA4 = target: T21, EPHA4 (Homo sapiens, UniProt P54764)
T21 construct: either as full-length or enzymatically active fragments; purchased ProQinase GmbH (Reaction Biology)
Protocol: as §1, §2

TSF1 = target: T22, TSF1 (Homo sapiens, UniProt O75716)
T22 construct: either as full-length or enzymatically active fragments; purchased ProQinase GmbH (Reaction Biology)
Protocol: as §1, §2

ABL2 = target: T23, ABL2 (Homo sapiens, UniProt P42684)
T23 construct: purchased ProQinase GmbH (Reaction Biology)
T23 sequence (P42684 whole entry): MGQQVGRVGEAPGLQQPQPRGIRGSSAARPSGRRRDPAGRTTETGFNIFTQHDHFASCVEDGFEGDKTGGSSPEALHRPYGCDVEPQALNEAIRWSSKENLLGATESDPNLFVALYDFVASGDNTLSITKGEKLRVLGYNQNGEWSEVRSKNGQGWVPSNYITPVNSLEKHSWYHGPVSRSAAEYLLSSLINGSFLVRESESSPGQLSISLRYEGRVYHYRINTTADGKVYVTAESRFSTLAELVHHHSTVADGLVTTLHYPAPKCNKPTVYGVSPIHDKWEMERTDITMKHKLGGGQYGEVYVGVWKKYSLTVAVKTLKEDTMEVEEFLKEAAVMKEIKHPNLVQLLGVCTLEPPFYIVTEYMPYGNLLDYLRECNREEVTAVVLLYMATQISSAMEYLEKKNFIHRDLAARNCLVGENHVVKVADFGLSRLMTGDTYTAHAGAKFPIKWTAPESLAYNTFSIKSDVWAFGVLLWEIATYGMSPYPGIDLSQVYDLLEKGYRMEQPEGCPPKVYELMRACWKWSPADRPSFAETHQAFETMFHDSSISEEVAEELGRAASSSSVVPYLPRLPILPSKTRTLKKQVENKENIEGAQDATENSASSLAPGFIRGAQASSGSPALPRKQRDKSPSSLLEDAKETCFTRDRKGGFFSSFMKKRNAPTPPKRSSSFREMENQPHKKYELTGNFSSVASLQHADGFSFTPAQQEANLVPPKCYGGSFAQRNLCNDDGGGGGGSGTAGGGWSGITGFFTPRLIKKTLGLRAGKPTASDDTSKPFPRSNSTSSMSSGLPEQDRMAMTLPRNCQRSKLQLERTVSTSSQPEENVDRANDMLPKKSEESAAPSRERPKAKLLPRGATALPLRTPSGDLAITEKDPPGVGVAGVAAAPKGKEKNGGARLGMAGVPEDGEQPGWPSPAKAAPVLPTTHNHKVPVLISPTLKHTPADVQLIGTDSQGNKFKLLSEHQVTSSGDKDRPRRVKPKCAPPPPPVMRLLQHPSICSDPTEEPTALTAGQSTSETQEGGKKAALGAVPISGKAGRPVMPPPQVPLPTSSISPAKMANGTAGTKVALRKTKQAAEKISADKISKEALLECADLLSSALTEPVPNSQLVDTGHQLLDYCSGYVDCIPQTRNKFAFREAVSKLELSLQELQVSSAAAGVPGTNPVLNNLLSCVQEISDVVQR
Protocol: as §1, §2

MAPKAPK3 = target: T24, MAPKAPK3 (Homo sapiens, UniProt Q16644)
T24 construct: either as full-length or enzymatically active fragments; purchased ProQinase GmbH (Reaction Biology)
Protocol: as §1, §2

PKCiota = target: T25, PKCiota (Homo sapiens, UniProt P41743)
T25 construct: either as full-length or enzymatically active fragments; purchased ProQinase GmbH (Reaction Biology)
T25 sequence (P41743 whole entry, the tested form may be a part): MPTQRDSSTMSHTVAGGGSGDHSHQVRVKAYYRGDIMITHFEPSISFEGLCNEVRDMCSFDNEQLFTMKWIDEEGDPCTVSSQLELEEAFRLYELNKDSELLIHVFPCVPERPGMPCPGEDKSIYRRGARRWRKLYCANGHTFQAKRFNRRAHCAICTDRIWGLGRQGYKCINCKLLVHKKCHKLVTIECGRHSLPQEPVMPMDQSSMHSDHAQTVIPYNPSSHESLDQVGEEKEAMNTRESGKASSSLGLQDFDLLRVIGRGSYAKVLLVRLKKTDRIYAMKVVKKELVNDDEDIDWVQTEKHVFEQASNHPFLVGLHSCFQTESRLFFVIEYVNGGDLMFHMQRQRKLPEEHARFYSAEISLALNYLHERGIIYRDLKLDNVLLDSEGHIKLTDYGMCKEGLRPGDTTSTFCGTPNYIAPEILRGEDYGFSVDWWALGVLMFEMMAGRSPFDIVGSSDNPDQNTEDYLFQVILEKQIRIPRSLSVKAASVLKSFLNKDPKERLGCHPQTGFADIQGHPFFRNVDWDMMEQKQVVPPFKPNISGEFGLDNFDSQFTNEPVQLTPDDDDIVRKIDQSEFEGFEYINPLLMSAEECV
Protocol: as §1, §2

RON = target: T26, RON (Homo sapiens, UniProt Q04912)
T26 construct: purchased ProQinase GmbH (Reaction Biology)
Protocol: as §1, §2

p38beta = target: T27, p38beta (Homo sapiens, UniProt Q15759)
T27 construct: either as full-length or enzymatically active fragments; purchased ProQinase GmbH (Reaction Biology); host or cells: Sf9 insect cells or E. coli (not specified per kinase)
Protocol: as §1, §2

MST1 = target: T28, MST1 (Homo sapiens, UniProt Q13043)
T28 construct: purchased ProQinase GmbH (Reaction Biology); host or cells: Sf9 insect cells or E. coli (not specified per kinase)
Protocol: as §1, §2

p38alpha = target: T29, p38alpha (Homo sapiens, UniProt Q16539)
T29 construct: either as full-length or enzymatically active fragments; purchased ProQinase GmbH (Reaction Biology)
Protocol: as §1, §2

JAK2 = target: T30, JAK2 (Homo sapiens, UniProt O60674)
T30 construct: either as full-length or enzymatically active fragments; purchased ProQinase GmbH (Reaction Biology)
Protocol: as §1, §2

RPS6KA1 = target: T31, RPS6KA1 (Homo sapiens, UniProt Q15418)
T31 construct: purchased ProQinase GmbH (Reaction Biology)
Protocol: as §1, §2

T1 sequence (P17948 27-1338): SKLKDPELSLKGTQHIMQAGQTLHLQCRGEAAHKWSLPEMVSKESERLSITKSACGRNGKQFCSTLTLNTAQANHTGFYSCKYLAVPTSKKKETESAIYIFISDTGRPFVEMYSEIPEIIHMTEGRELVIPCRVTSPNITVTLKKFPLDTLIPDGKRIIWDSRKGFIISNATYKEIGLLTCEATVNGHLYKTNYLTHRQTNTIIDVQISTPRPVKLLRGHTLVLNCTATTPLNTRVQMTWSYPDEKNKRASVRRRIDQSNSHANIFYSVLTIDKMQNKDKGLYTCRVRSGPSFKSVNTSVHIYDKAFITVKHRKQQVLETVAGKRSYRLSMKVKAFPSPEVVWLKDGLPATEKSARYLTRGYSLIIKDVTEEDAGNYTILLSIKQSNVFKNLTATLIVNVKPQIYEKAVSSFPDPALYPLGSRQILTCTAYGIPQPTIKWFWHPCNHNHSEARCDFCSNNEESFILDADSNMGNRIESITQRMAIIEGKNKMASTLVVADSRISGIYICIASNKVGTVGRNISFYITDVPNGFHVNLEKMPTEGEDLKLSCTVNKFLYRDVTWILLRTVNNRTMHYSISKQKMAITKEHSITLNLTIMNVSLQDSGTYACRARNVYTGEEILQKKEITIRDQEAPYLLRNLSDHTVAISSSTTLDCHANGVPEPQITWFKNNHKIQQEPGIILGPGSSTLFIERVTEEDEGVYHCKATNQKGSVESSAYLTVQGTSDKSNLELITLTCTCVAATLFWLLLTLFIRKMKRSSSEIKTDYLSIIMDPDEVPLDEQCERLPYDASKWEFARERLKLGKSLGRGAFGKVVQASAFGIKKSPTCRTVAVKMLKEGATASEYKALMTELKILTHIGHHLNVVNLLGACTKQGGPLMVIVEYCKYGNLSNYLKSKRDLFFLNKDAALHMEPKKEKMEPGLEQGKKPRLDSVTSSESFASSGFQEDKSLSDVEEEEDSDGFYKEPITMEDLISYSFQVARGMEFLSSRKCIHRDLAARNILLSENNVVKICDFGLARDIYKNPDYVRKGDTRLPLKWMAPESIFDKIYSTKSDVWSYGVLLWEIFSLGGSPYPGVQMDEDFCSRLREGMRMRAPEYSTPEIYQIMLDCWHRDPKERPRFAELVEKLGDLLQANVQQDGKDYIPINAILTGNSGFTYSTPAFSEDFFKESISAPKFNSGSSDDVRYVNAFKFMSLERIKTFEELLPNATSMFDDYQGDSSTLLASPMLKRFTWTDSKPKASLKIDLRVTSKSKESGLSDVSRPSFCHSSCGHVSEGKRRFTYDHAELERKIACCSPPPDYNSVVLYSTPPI

With `C=CC(=O)Nc1ccc(C(=O)N2CC[C@@H](Nc3ncc(C#N)cn3)C2)cc1` [Compound 4, (R)-N-(4-(3-((5-cyanopyrimidin-2-yl)amino)pyrrolidine-1-carbonyl)phenyl)acrylamide] the inhibition at 1 µM (VEGFR1) was 8%, the inhibition at 1 µM (CLK2) was -2% and the inhibition at 1 µM (FES) was -2%. For the same molecule, the inhibition at 1 µM (CDK2/CycE1) was 9%, the inhibition at 1 µM (CAMKK2) was 9% and the inhibition at 1 µM (DYRK1B) was 3%. For the same molecule, the inhibition at 1 µM (PDGFRalpha) was 7%, the inhibition at 1 µM (EPHA6) was 5% and the inhibition at 1 µM (MEK2) was 3%. It also gave an inhibition at 1 µM (PRK1) of -1%, an inhibition at 1 µM (RIPK4) of -3% and an inhibition at 1 µM (TXK) of 6%. The inhibition at 1 µM (CDK1/CycE1) was 11%, the inhibition at 1 µM (ACVRL1) was 3% and the inhibition at 1 µM (TRKC) was -11%. For the same molecule, the inhibition at 1 µM (ACVR1B) was 1%, the inhibition at 1 µM (MASTL) was 11% and the inhibition at 1 µM (MST2) was 0%. For the same molecule, the inhibition at 1 µM (DYRK1A) was 7%, the inhibition at 1 µM (PKCbeta2) was 7% and the inhibition at 1 µM (EPHA4) was 2%. It also gave an inhibition at 1 µM (TSF1) of 6%, an inhibition at 1 µM (ABL2) of -1% and an inhibition at 1 µM (MAPKAPK3) of 8%. It also gave an inhibition at 1 µM (PKCiota) of -4%, an inhibition at 1 µM (RON) of -1% and an inhibition at 1 µM (p38beta) of 8%. The inhibition at 1 µM (MST1) was 1%, the inhibition at 1 µM (p38alpha) was 3% and the inhibition at 1 µM (JAK2) was -6%. For the same molecule, the inhibition at 1 µM (RPS6KA1) was -1%.
